Assay results published in patent EP0483631A1, “3-Oxy substituted isoxazolines, process for their preparation and their utilization against Endoparasites” (BAYER AG, priority 1990, dated 1992).

Experiments:
[1] = system: Trichostrongylus colubriformis; assay: In vivo nematode test, Trichostrongylus colubriformis / sheep (faecal egg count before and after treatment); set-up: species or system Schaf; conditions: experimentally infected sheep, treated after the prepatent period, pure active ingredient in gelatine capsules, oral, dose giving complete cessation of egg excretion, read-out: Dosis effectiva
Description: Trichostrongylus colubriformis / Schaf
Experimentell mit Trichostrongylus colubriformis infizierte Schafe wurden nach Ablauf der Präpatenzzeit des Parasiten behandelt. Die Wirkstoffe wurden als reiner Wirkstoff in Gelatinekapseln oral appliziert.
Der Wirkungsgrad wird dadurch bestimmt, daß man die mit dem Kot ausgeschiedenen Wurmeier vor und nach der Behandlung quantitativ auszählt.
(§1) Ein völliges Sistieren der Eiausscheidung nach der Behandlung bedeutet, daß die Würmer abgetrieben wurden oder so geschädigt sind, daß sie keine Eier mehr produzieren (Dosis effectiva).
Geprüfte Wirkstoffe und wirksame Dosierungen (Dosis effectiva) sind aus der nachfolgenden Tabelle ersichtlich.

Haemonchus contortus = assay: In vivo nematode test, Haemonchus contortus / sheep (faecal count before and after treatment); set-up: species or system Schaf; conditions: experimentally infected sheep, treated after the prepatent period, pure active ingredient in gelatine capsules, oral, dose giving complete cessation of egg excretion, read-out: Dosis effectiva
Description: Haemonchus contortus / Schaf
Experimentell mit Haemonchus contortus infizierte Schafe wurden nach Ablauf der Präpatenzzeit des Parasiten behandelt. Die Wirkstoffe wurden als reiner Wirkstoff in Gelatinekapseln oral appliziert.
Der Wirkungsgrad wird dadurch bestimmt, daß man die mit dem Kot ausgeschiedenen […] vor und nach der Behandlung quantitativ auszählt.
as §1
Geprüfte Wirkstoffe und wirksame Dosierungen (Dosis effectiva) sind aus der nachfolgenden Tabelle ersichtlich: […]

Compound	minimal effective dose [1] [mg/kg]	minimal effective dose (Haemonchus contortus) [mg/kg]
COC1=NOC[C@H]1NC(=O)c1ccccc1C(=O)O [Beispiel 1, (R)-N-(4,5-Dihydro-3-methoxy-4-isoazolyl)-phthalamidsäure]	25	10
O=C(O)c1ccccc1C(=O)N[C@@H]1CON=C1OCc1cccc(Cl)c1 [Beispiel 2, (R)-N-[4-5-Dihydro-3-(-3-chlorphenyl)-methoxy-4-isoxazolyl]-phthalamidsäure]	25	10
CC(C)OC1=NOCC1NC(=O)c1ccccc1C(=O)O (stereo not drawn) [Beispiel 3]	25	10
